Measured values from BindingDB's records for doi:10.1021/ml5001867 (Abbvie, 2014).

Assay: Inhibition of BCL-XL (unknown origin) expressed in mcl-1 deficient MEF assessed as induction of cell killing incubated for 48 hrs in presence of 10% FBS by Cell titerGlo reagent based assay

Row | Compound | EC50 [nM]
1 | O=C(Nc1nc2ccccc2s1)c1cccc2c1CN(c1nc(C(=O)O)c(CCOc3ccc(-n4ncc5cncnc54)cc3)s1)CC2 | > 5000
2 | CN1CCN(CCCNc2ncnc3c2cnn3-c2ccc(OCCCc3sc(N4CCc5cccc(C(=O)Nc6nc7ccccc7s6)c5C4)nc3C(=O)O)cc2)CC1 | 20
3 | O=C(Nc1nc2ccccc2s1)c1cccc2c1CN(c1nc(C(=O)O)c(CCCOc3ccc(-n4ncc5cncnc54)cc3)s1)CC2 | 60
4 | O=C(Nc1nc2ccccc2s1)c1cccc2c1CN(c1nc(C(=O)O)c(CCOc3cccc(-n4ncc5cncnc54)c3)s1)CC2 | > 5000
5 | O=C(Nc1nc2ccccc2s1)c1cccc2c1CN(c1nc(C(=O)O)c(CCCOc3cccc(-n4ncc5cncnc54)c3)s1)CC2 | > 5000
6 | CN(C)CCCNc1ncnc2c1cnn2-c1ccc(OCCCc2sc(N3CCc4cccc(C(=O)Nc5nc6ccccc6s5)c4C3)nc2C(=O)O)cc1 | 10
7 | O=C(Nc1nc2ccccc2s1)c1cccc2c1CN(c1nc(C(=O)O)c(CCCOc3ccc(-n4cccn4)cc3)s1)CC2 | 640
8 | O=C(Nc1nc2ccccc2s1)c1cccc2c1CN(c1nc(C(=O)O)c(CCCCOc3ccc(-n4ncc5cncnc54)cc3)s1)CC2 | > 5000
